Experimental data: patent US10533989B2, “Metabolomics in pneumonia and sepsis” (University of Pittsburgh—Of the Commonwealth System of …, priority 2012, dated 2020)

Tested on: differentiated Thp1 monocytes
Assay: In-vitro monocyte stimulation, TNFα and IL1β in supernatant by ELISA
Assay type: cell-based, human
Settings: for IL-1β in supernatant vs PBS control / TNFα in supernatant vs PBS control: differentiated Thp1 monocytes, 16 h, beta-pseudouridine 10 mM, allantoin 0.3 mg/mL
Excerpt: Among significant metabolites (p<0.05, q<0.1) in our agnostic approach, five nucleic acid metabolites (e.g., beta-pseudouridine, 1-methyladenosine, N-2-methylguanosine, N-6-carbamoylthreonyladenosine, and allantoin) were identified for in vitro monocyte stimulation experiments. See, Table 2. These nucleic acid metabolites may function as damage-associated molecular patterns, and stimulate TNFα and IL1β similar to HMGB-1 and LPS. Bleiblo et al. (2012) “The role of immunostimulatory nucleic acids in septic shock” Int J Clin Exp Med 5:1-23
THP-1 cells (American Type Cell Collection, Manassas, Va., USA) were cultured in suspension in RPMI1640 media (Gibco, Grand Island, N.Y., USA) supplemented with 10% fetal bovine serum, 2 mM L-glutamine, 100 U/mL penicillin, 100 […], and 100 µM sodium pyruvate (all from Gibco). To differentiate the monocytes, 0.33×10^6 cells/mL were suspended in media and treated with 5 ng/mL PMA and then plated. After 48 h, adhered cells were washed three times in PBS and then treated for 16 h with compounds of interest at concentrations described. All compounds were dissolved in endotoxin-free water.
Endotoxin was measured at 61.5-153.8 pg per 250 µL treatment of 10 mM dose beta-pseudouridine, compared to 4,000 pg/mL in LPS-positive control. After 16 h media was collected and TNFα and IL1β levels determined by ELISA (R&D Systems, Minneapolis, Minn., USA) according to manufacturer's instructions. Experiments were repeated after treatment with viral inhibitory peptide of TLR4 (VIPER) and polymyxin B (PMB).

Structure (SMILES): O=c1[nH]cc([C@@H]2O[C@H](CO)[C@@H](O)[C@H]2O)c(=O)[nH]1 [pseudouridine]
- Cytokine (TNFα) stimulation, concentration dependence (beta-pseudouridine 0.0001-10 mM, 16 h (FIG. 5C)): concentration-dependent
- Cytokine (TNFα) levels in the presence of TLR4-receptor inhibitor VIPER (beta-pseudouridine 10 mM with VIPER (TLR4-antagonist), 16 h (FIG. 5D)): significantly abrogated
- Cytokine (TNFα) levels in the presence of polymyxin B (beta-pseudouridine 10 mM with polymyxin B (PMB; 10 μM), 16 h (FIG. 5D)): remained significantly elevated
- IL-1β in supernatant vs PBS control: increased
- TNFα in supernatant vs PBS control: increased
- IL-1β in supernatant vs PBS control (listed as beta-pseudouridine): stimulated significant release
- TNFα in supernatant vs PBS control (listed as beta-pseudouridine): stimulated significant release

Structure (SMILES): NC(=O)NC1NC(=O)NC1=O (centres unmarked) [allantoin]
- IL-1β in supernatant vs PBS control: significantly increased
